Assay results from patent US5989832A, “Method for screening for non-tetracycline efflux pump inhibitors” (Microcide Pharmaceuticals, Inc., priority 1995, dated 1999).
Entries after “also recorded” stand apart in the source; their conditions may differ. Like-named read-outs stand apart in the source and are kept apart here. Peptide text beside a SMILES is read from it.

What was measured:
P. aeruginosa K799/61 [1] = assay: Susceptibility to tetracycline and ciprofloxacin, pump deficient mutant K799/61
[2] = test system: P. aeruginosa strain K385; assay: microbe, parasite or virus in culture; type: cell-based; settings: Pseudomonas aeruginosa, K385, 20 h, read-out: growth inhibition in the absence of ciprofloxacin
[3] = test system: wild-type strains of P. aeruginosa; settings: cited from earlier work
mexA-mexB-oprM = settings: insertion mutagenesis; cited from earlier work
P. aeruginosa K799/61 [4] = settings: mutant strain k799/61; cited from earlier work
P. aeruginosa K385 = settings: cited from earlier work
AcrAE efflux system = settings: cited from earlier work
[5] = test system: P. aeruginosa strain 799/61; assay: [3H]-tetracycline accumulation assay, strain 799/61 without efflux pumps; type: cell-based, Pseudomonas aeruginosa; settings: CCCP added
Experimental: A tetracycline accumulation assay was set up to measure the activity of efflux pumps in P. aeruginosa. The assay measures the accumulation of [3H]-tetracycline in bacteria and was optimized for measuring tetracycline accumulation in P. aeruginosa.
A new tetracycline steady state equilibrium is reached when CCCP is added to the cell suspension and pH equilibrates in both sides of the membrane.

E. coli HN818 = assay: Susceptibility to acridine orange, AcrAB pump deficient strain HN818; type: cell-based; settings: acridine orange alone
Text: The effect of L-phenylalanyl-L-arginyl-β-naphthylamide was also studied on an AcrAB pump deficient mutant of E. coli which was obtained by transposon mutagenesis in the laboratory of H. Nikaido.

[6] = test system: P. aeruginosa PAO1, PAO4098E, K385 and 799/61; assay: Tetracycline accumulation in four P. aeruginosa strains (basal level); type: cell-based, Pseudomonas aeruginosa
Text: Alternatively, efflux pumps are identified by their ability to lower the accumulation of a substrate in a cell. Efflux pumps involved in drug resistance can be identified because they confer resistance to antibiotics. Efflux pumps involved in multidrug resistance in bacteria usually give an intermediate level of resistance to a broad range of antibiotics. Specific mechanism of resistance, including specific efflux pumps, give a much higher level of resistance to one antibiotic or a group of structurally related antibiotics. […] To identify whether an efflux pump is involved in antibiotic resistance in a given strain, accumulation experiments should be performed using antibiotics that it is suspected are exported by the efflux pump. The protein pattern in electrophoresis of cytoplasmic membrane proteins should be studied to identify the overexpression of a protein or the appearance of a new band in the protein pattern using gel electrophoresis. For Gram-negative bacteria, the outer membrane proteins should also be studied. Since efflux pumps are a common occurrence in most bacteria, the basal level of antibiotic susceptibility of a wild type might be caused by naturally occurring efflux pumps. […] Mutants that overexpress the pumps can be isolated using antibiotic-containing media. These mutants will be more resistant to antibiotics and will accumulate lower levels of antibiotics. […]

## N=C(N)NCCC[C@H](NC(=O)[C@@H](N)Cc1ccccc1)C(=O)Nc1ccc2ccccc2c1 [L-phenylalanyl-L-arginyl-β-naphthylamide] (HELM PEPTIDE1{F.R.[c1ccc2cc(N[*:1])ccc2c1]}$$$$V2.0)
P. aeruginosa K799/61 [1]
  effect on susceptibility to tetracycline and ciprofloxacin: no effect
[2]
  inhibition at 10 µg/mL: 1%

## CCn1cc(C(=O)O)c(=O)c2cc(F)c(N3CCNCC3)cc21 [norfloxacin]
[3]
  efflux by wild-type strains: very effectively

## O=C(N[C@H](CO)[C@H](O)c1ccc([N+](=O)[O-])cc1)C(Cl)Cl [chloramphenicol]
[3]
  efflux by wild-type strains: very effectively
mexA-mexB-oprM
  susceptibility of the strain with inactivated operon: almost as susceptible as E. coli
P. aeruginosa K799/61 [4]
  capability of pumping out: essentially incapable of pumping out

## c1ccc(-c2ccccn2)nc1 [2,2'-dipyridyl]
P. aeruginosa K385
  susceptibility associated with production of a 50-kDa outer membrane protein: decreased susceptibility

## acriflavine
AcrAE efflux system; acrA mutant vs wild type
  steady-state accumulation of acriflavine: increases at least fivefold
AcrAE efflux system; wild-type acrA+ strain
  steady-state accumulation of acriflavine: extremely low

## N#CC(C#N)=NNc1cccc(Cl)c1 [CCCP, carbonyl cyanide m-chlorophenylhydrazone]
[5]
  tetracycline accumulation: lowered the tetracycline accumulation

## CN(C)c1ccc2cc3ccc(N(C)C)cc3nc2c1 [acridine orange]
E. coli HN818
  susceptibility of HN818 to acridine orange versus parent strain: more susceptible to acridine orange than the parent strain

## CN(C)C1C(=O)C(C(N)=O)=C(O)C2(O)C(=O)C3=C(O)c4c(O)cccc4C(C)(O)C3CC12 (stereo not shown) [tetracycline]
[3]
  efflux by wild-type strains: very effectively
[6]; PAO4098E and K385
  tetracycline accumulation, efflux pump overproducer strains: accumulated lower amounts of tetracycline
[6]; strain 799/61
  intracellular accumulation of tetracycline, strain 799/61 versus others: highest internal concentration; also recorded: accumulated more tetracycline than the wild type PAO1
mexA-mexB-oprM
  susceptibility of the strain with inactivated operon: almost as susceptible as E. coli
P. aeruginosa K799/61 [4]
  capability of pumping out: essentially incapable of pumping out
